Measured values reported in ChEMBL document CHEMBL5223163, “In the Quest for Potent and Selective Malic Enzyme 3 Inhibitors for the Treatment of Pancreatic Ductal Adenocarcinoma” (ACS Med Chem Lett, 2023).

Assays:
[1] = molecular target: NAD-dependent malic enzyme, mitochondrial (Homo sapiens, UniProt P23368); experiment: (§1) Inhibition of His-tagged human recombinant full length ME2 using L-malate and beta-NAD+ as substrate preincubated with enzyme for 5 mins followed by beta-NAD+ challenge and incubated under shaking for 5 mins followed by incubation for 2 hrs without shaking by resorufin dye based fluorescence analysis
[2] = molecular target: T1, NADP-dependent malic enzyme (Homo sapiens, UniProt P48163); experiment: as §1, with “ME1” for “ME2”, “beta-NADP+” for “beta-NAD+”
T1 sequence (P48163 whole entry): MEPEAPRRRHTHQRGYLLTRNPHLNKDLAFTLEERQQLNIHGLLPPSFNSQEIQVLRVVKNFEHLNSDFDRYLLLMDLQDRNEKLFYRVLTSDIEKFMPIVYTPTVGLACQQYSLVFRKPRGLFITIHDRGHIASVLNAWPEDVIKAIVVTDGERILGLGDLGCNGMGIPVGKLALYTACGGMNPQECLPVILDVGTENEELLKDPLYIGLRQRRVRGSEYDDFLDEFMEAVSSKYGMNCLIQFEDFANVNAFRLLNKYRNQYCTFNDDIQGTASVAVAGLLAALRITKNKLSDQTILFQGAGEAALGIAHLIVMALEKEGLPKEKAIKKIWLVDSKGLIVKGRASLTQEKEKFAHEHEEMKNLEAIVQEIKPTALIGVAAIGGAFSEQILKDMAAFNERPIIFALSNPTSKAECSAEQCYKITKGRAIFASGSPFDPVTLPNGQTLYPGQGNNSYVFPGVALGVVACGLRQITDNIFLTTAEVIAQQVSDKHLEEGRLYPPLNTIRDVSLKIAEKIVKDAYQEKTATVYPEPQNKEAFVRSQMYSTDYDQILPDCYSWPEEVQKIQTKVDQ

[3] = molecular target: T2, NADP-dependent malic enzyme, mitochondrial (Homo sapiens, UniProt Q16798)
T2 sequence (Q16798 whole entry): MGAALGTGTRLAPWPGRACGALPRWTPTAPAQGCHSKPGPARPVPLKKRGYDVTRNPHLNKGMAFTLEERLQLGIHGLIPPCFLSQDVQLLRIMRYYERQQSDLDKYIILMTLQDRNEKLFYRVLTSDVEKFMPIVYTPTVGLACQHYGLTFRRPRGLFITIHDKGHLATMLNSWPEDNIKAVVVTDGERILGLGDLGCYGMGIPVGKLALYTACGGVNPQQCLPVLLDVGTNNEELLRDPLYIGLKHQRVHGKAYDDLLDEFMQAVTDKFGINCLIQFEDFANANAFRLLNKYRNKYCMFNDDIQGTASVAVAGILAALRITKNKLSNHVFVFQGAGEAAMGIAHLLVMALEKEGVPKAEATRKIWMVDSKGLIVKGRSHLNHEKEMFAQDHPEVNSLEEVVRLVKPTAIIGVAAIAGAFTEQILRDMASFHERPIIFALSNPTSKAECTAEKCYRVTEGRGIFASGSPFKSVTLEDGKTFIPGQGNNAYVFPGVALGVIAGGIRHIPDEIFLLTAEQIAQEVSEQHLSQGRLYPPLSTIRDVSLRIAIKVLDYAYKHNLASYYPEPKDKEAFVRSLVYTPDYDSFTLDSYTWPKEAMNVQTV
Description: (§2) Inhibition of His-tagged human recombinant ME3 (26 to 604 residues) using L-malate and beta-NADP+ as substrate preincubated with enzyme for 5 mins followed by beta-NADP+ challenge and incubated under shaking for 5 mins followed by incubation for 3 hrs without shaking by resorufin dye based fluorescence analysis

[4] = Cytotoxicity against human HCE-T cells assessed as inhibition of cell growth; type: toxicity, cell-based
[5] = Selectivity for SMAD4/ME2-null human BXPC-3 cells over human HCE-T cells
BXPC-3 [6] = experiment: cells; conditions: Homo sapiens, BXPC-3, 72 h, read-out: INH
Description: Antiproliferative activity against SMAD4/ME2-null human BXPC-3 cells assessed as inhibition of cell growth at 10 uM incubated for 72 hrs by CellTiter-Glo luminescence assay

BXPC-3 [7] = experiment: cells; conditions: Homo sapiens, BXPC-3, 72 h
Description: Antiproliferative activity against SMAD4/ME2-null human BXPC-3 cells assessed as inhibition of cell growth incubated for 72 hrs by CellTiter-Glo luminescence assay

HUVEC = experiment: Cytotoxicity against human HUVEC cells assessed as inhibition of cell growth; type: toxicity, cell-based
[8] = molecular target: T3, NADP-dependent malic enzyme, mitochondrial (Homo sapiens) (UniProt Q16798); conditions: BXPC-3, dose 100.0 µM, time 24.0 hrs
T3 sequence (whole entry): T2 sequence (Q16798 whole entry)

[9] = molecular target: T3, NADP-dependent malic enzyme, mitochondrial (Homo sapiens); conditions: BXPC-3, Lysates, dose 100.0 µM, time 2.0 hrs
[10] = molecular target: T3, NADP-dependent malic enzyme, mitochondrial (Homo sapiens); conditions: dose 0.1 µM, time 190.0 min
BXPC-3 [11] = experiment: Antiproliferative activity against SMAD4/ME2-null human BXPC-3 cells assessed as inhibition of cell growth at 1 uM incubated for 72 hrs by CellTiter-Glo luminescence assay; type: functional
[12] = molecular target: T2, NADP-dependent malic enzyme, mitochondrial; remark: listed apart in the source
Description: as §2

[13] = Lipophilicity, log P of the compound; type: physicochemical; conditions: octanol/water

Chain of NAD-dependent malic enzyme, mitochondrial (P23368 whole entry): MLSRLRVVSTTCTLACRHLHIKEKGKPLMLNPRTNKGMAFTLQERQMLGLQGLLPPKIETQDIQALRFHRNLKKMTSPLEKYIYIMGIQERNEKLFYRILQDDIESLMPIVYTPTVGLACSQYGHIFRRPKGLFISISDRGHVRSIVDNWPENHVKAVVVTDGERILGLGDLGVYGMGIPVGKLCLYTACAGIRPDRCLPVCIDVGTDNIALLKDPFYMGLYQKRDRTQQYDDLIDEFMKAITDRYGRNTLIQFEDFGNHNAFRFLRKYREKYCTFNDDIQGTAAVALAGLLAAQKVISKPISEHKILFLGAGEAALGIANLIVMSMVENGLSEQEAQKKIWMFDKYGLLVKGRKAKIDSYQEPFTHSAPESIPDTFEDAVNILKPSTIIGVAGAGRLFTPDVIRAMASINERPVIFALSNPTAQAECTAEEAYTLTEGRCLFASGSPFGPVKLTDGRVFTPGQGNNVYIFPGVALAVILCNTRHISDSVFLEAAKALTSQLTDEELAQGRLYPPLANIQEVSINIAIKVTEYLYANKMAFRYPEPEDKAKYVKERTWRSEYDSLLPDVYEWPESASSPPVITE

IC50 ([1]; read-out: IC50) [nM]	IC50 ([2]; read-out: IC50) [nM]	IC50 [3] [nM]	IC50 (BXPC-3 [7]) [nM]	SMILES	Selectivity ratio [5]	inhibition at 10 µM (BXPC-3 [6]) [%]	other results
980	1600	200	–	O=C(Cc1ccccc1)N1CCN(c2ccc(O)cn2)CC1	–	–	–
2800	1500	360	5400	CC(C)(CC(=O)N1CCN(c2ccc(O)cn2)CC1)c1ccc(Cl)cc1	5	97	IC50 [4]: > 30000 nM
1720	1500	230	5100	O=C(CCc1ccccc1)N1CCN(c2ccc(O)cn2)CC1	5	90	IC50 [4]: > 30000 nM; Activity (HUVEC): Non-Toxic; ΔTm [8]: 4.9 °C; ΔTm [9]: 7 °C
230	170	80	–	O=C(/C=C/c1ccccc1)N1CCN(c2ccc(O)cc2)CC1	5	29	–
–	–	–	–	CC(=O)N1CCN(c2ccc(O)cn2)CC1	–	0	inhibition [10]: 23%; inhibition at 1 µM (BXPC-3 [11]): 0%
1290	1320	160	4600	O=C(CCc1cccs1)N1CCN(c2ccc(O)cn2)CC1	5	76	IC50 [4]: 25000 nM
–	–	–	–	O=C(Cc1ccccc1)N1CCN(c2ccc(O)nn2)CC1	–	–	IC50 [1]: Not Active; IC50 [2]: Not Active; IC50 [12]: Not Active
–	–	–	–	Oc1ccc(N2CCN(CC3CC3)CC2)nc1	–	0	inhibition [10]: 0%; inhibition at 1 µM (BXPC-3 [11]): 0%
1590	1020	140	6300	O=C(CCc1ccc(Cl)cc1)N1CCN(c2ccc(O)cn2)CC1	5	71	IC50 [4]: > 30000 nM
270	150	120	5200	CC(C)(CC(=O)N1CCN(c2ccc(O)cc2)CC1)c1ccccc1	5	85	IC50 [4]: > 30000 nM; Activity (HUVEC): Non-Toxic
200	220	21000	–	O=C(Nc1nnn[nH]1)C1c2ccccc2OC2C=CC=CC21 (stereo unspecified)	–	–	–
–	–	–	–	O=C(Cc1ccccc1)N1CCN(c2ccc(O)nc2)CC1	–	–	IC50 [1]: Not Active; IC50 [2]: Not Active; IC50 [12]: Not Active
–	–	–	–	O=C(CCc1ccccc1)N1CCN(c2ncc(O)cn2)CC1	–	–	IC50 [1]: Not Active; IC50 [2]: Not Active; IC50 [12]: Not Active
–	–	130	–	O=C(Nc1ccccc1)C1CCN(c2ccc(O)cc2)CC1	–	–	–
2500	1900	470	–	COc1ccc(CCC(=O)N2CCN(c3ccc(O)cn3)CC2)cc1	5	13	–
–	–	–	–	O=C(C1CC1)N1CCN(c2ccc(O)cn2)CC1	–	10	inhibition [10]: 14%; inhibition at 1 µM (BXPC-3 [11]): 0%
350	420	60	–	CCCCOc1ccc(CCC(=O)N2CCN(c3ccc(O)cc3)CC2)cc1	5	29	–
–	–	–	> 30000	O=C(CCc1ccccc1)N1CCN(c2ccc(F)cn2)CC1	–	0	–
150	150	130	5700	O=C(Cc1ccc(Cl)cc1)N1CCN(c2ccc(O)cc2)CC1	5	80	–

IC50 ([1]; read-out: IC50) [nM]	IC50 ([2]; read-out: IC50) [nM]	IC50 [3] [nM]	IC50 (BXPC-3 [7]) [nM]	SMILES	Selectivity ratio [5]	inhibition at 10 µM (BXPC-3 [6]) [%]	other results
410	210	330	–	O=C(Cc1ccc(C(F)(F)F)cc1)N1CCN(c2ccc(O)cc2)CC1	5	39	–
1110	1300	310	5900	CC(C)(CC(=O)N1CCN(c2ccc(O)cn2)CC1)c1ccc(F)cc1	5	100	IC50 [4]: > 30000 nM
1630	1200	240	–	O=C(CCc1cc2ccccc2s1)N1CCN(c2ccc(O)cn2)CC1	5	46	–
2600	3500	580	–	COCCOc1ccc(CCC(=O)N2CCN(c3ccc(O)cn3)CC2)cc1	5	3	–
360	340	110	–	O=C(CN1CCN(c2ccc(O)cc2)CC1)Nc1ccccc1	5	18	–
–	–	–	–	COc1ccc(N2CCN(C(=O)CCc3ccccc3)CC2)nc1	–	13	–
–	–	–	–	Oc1ccc(N2CCNCC2)nc1	–	12	inhibition [10]: 0%; inhibition at 1 µM (BXPC-3 [11]): 2%
2800	10300	5600	–	O=C(O)c1cc2ccccc2c(Cc2cc3ccccc3c(C(=O)O)c2O)c1O	–	–	–
1370	2370	150	3500	CC(C)(CC(=O)N1CCN(c2ccc(O)cn2)CC1)c1ccccc1	5	99	logP [13]: 3.41; IC50 [4]: > 30000 nM
1660	1740	410	–	O=C(CCc1ccc(F)cc1)N1CCN(c2ccc(O)cn2)CC1	5	48	–
200	220	150	–	O=C1CC(N2CCN(c3ccc(O)cc3)CC2)C(=O)N1c1ccccc1 (stereo unspecified)	5	0	–
190	180	100	6000	O=C(Cc1ccccc1)N1CCN(c2ccc(O)cc2)CC1	5	80	–
270	270	100	3600	O=C(CCc1ccccc1)N1CCN(c2ccc(O)cc2)CC1	5	93	IC50 [4]: > 30000 nM
–	–	–	–	CC(C)CN1CCN(c2ccc(O)cn2)CC1	–	6	inhibition [10]: 0%; inhibition at 1 µM (BXPC-3 [11]): 0%
–	–	70	–	O=C(Cc1ccccc1)NC1CCN(c2ccc(O)cc2)CC1	–	–	–
3900	1310	390	15000	CCCCOc1ccc(CCC(=O)N2CCN(c3ccc(O)cn3)CC2)cc1	5	7	–
390	630	130	–	O=C(COc1ccccc1)N1CCN(c2ccc(O)cc2)CC1	5	55	–
1700	13800	5100	–	O=C(Nc1nnn[nH]1)c1cc(-c2ccccc2)nc2ccccc12	–	–	–
220	200	110	31000	O=C(Nc1ccccc1)N1CCN(c2ccc(O)cc2)CC1	5	28	–
